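Protocol summary: plate cells (96-well), add compound at 5 concentrations, incubate 48 h, interpolate endpoints linearly. GI50: concentration for 50% inhibition of growth.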 Activity calls are given as the source filed them. Cut-off read from the data, not from the text of the source: active = GI50 up to about 1.1 µM and inactive = higher.
Legend:
Assay in all cases: NCI-60 cell line screen, 48 h
HCT-116 = system: HCT-116
HCT-15 = system: HCT-15
HL-60 = system: HL-60
IGROV-1 = system: IGROV-1
K562 = system: K562
M14 = system: M14
MDA-MB-435 = system: MDA-MB-435
NCI-H23 = system: NCI-H23
NCI/ADR-RES = system: NCI/ADR-RES
RPMI-8226 = system: RPMI-8226
SF-268 = system: SF-268
SK-MEL-28 = system: SK-MEL-28
SN12C = system: SN12C
SNB-75 = system: SNB-75
SW-620 = system: SW-620
T47D = system: T47D
TK-10 = system: TK-10
UACC-257 = system: UACC-257

Row | Compound | GI50 (HCT-116) | GI50 (HCT-15) [µM] | GI50 (HL-60) | GI50 (IGROV-1) | GI50 (K562) | GI50 (M14) | GI50 (MDA-MB-435) | GI50 (NCI-H23) | GI50 (NCI/ADR-RES) | GI50 (RPMI-8226) | GI50 (SF-268) | GI50 (SK-MEL-28) | GI50 (SN12C) | GI50 (SNB-75) | GI50 (SW-620) | GI50 (T47D) | GI50 (TK-10) | GI50 (UACC-257)
1 | Fc1c(F)c(C(F)(F)F)c(F)c(F)c1N/N=C\c1c[nH]c2ccccc12 | 3.73 µM (inactive) | 3.37 | 2.54 µM (inactive) | 1.26 µM (inactive) | 2.87 µM (inactive) | 1.62 µM (inactive) | 1.51 µM (inactive) | 3.95 µM (inactive) | 2.13 µM (inactive) | 2.81 µM (inactive) | 5.24 µM (inactive) | 6.82 µM (inactive) | 3.13 µM (inactive) | 1.27 µM (inactive) | 3.37 µM (inactive) | 2.4 µM (inactive) | 4.48 µM (inactive) | 3.52 µM (inactive)
2 | Cc1cccc(NC(=O)O/N=C(\Cl)C(C)C)c1 | 3.37 µM (inactive) | 2.25 | 1.94 µM (inactive) | 17.5 µM (inactive) | 2.31 µM (inactive) | 4.58 µM (inactive) | 14.5 µM (inactive) | 15.1 µM (inactive) | 21.3 µM (inactive) | 2.96 µM (inactive) | 20 µM (inactive) | 7.19 µM (inactive) | 3.37 µM (inactive) | 18.1 µM (inactive) | 2.19 µM (inactive) | 6.82 µM (inactive) | 14 µM (inactive) | 17.3 µM (inactive)
3 | Nc1nn2c(nc(N)c3c(N)n[nH]c32)c1/N=N\c1ccc(Br)cc1 | 53.8 µM (inactive) | > 91.8 | 8.15 µM (inactive) | 81.8 µM (inactive) | 2.16 µM (inactive) | 5.86 µM (inactive) | 3.13 µM (inactive) | > 5.61 µM (inactive) | > 100 µM (inactive) | > 100 µM (inactive) | 7.66 µM (inactive) | 7.73 µM (inactive) | 7.76 µM (inactive) | 18.1 µM (inactive) | 43.7 µM (inactive) | 1.76 µM (inactive) | 66.8 µM (inactive) | 26.7 µM (inactive)
4 | NC(=O)CCSC(CC(=O)c1ccc(Cl)cc1)c1ccc(Cl)cc1 (centres undefined) | 14.7 µM (inactive) | 10.5 | 6.97 µM (inactive) | 16.2 µM (inactive) | 7.1 µM (inactive) | 27.2 µM (inactive) | 16 µM (inactive) | 32.4 µM (inactive) | 22.8 µM (inactive) | 2.21 µM (inactive) | 27.8 µM (inactive) | 28.4 µM (inactive) | 28.2 µM (inactive) | 40.1 µM (inactive) | 3.08 µM (inactive) | 19.1 µM (inactive) | 48 µM (inactive) | 27.7 µM (inactive)
5 | CCC(C)C1=C(O)[N+]2([O-])Oc3ccc(-c4c(O)c(O)c(-c5ccc(O)cc5)c(OC(C)=O)c4OC(C)=O)cc3OC2(C(C)CC)C(=O)N1O (centres undefined) | 18.2 µM (inactive) | > 50 | > 50 µM (inactive) | > 50 µM (inactive) | 35.4 µM (inactive) | > 50 µM (inactive) | 16.8 µM (inactive) | > 50 µM (inactive) | > 50 µM (inactive) | > 50 µM (inactive) | > 50 µM (inactive) | > 50 µM (inactive) | > 50 µM (inactive) | > 50 µM (inactive) | > 50 µM (inactive) | > 50 µM (inactive) | > 50 µM (inactive) | > 50 µM (inactive)
6 | Cc1cc(S(=O)(=O)NC2=Nc3ccccc3C(c3ccccc3)N2)c(S)cc1Cl (centres undefined) | 7.13 µM (inactive) | 59.3 | > 100 µM (inactive) | > 100 µM (inactive) | 87.9 µM (inactive) | > 100 µM (inactive) | 31.7 µM (inactive) | > 100 µM (inactive) | > 100 µM (inactive) | 63.7 µM (inactive) | 39 µM (inactive) | > 100 µM (inactive) | 50.7 µM (inactive) | > 100 µM (inactive) | > 100 µM (inactive) | 6.56 µM (inactive) | > 100 µM (inactive) | > 100 µM (inactive)
7 | O=C1OI(C#Cc2ccccc2)c2ccccc21 | 2.24 µM (inactive) | 3.18 | 1.12 µM (active) | 2.14 µM (inactive) | 2.15 µM (inactive) | 4.38 µM (inactive) | 3.72 µM (inactive) | 2.38 µM (inactive) | 5.98 µM (inactive) | 1.57 µM (inactive) | 2.84 µM (inactive) | 5.48 µM (inactive) | 4.16 µM (inactive) | 3.89 µM (inactive) | 2.19 µM (inactive) | 3.16 µM (inactive) | 3.29 µM (inactive) | 5.2 µM (inactive)
8 | COC(=O)C1[C@H](C(=O)OC)C1(Br)CBr (some centres undefined) | > 100 µM (inactive) | > 100 | > 100 µM (inactive) | > 100 µM (inactive) | > 100 µM (inactive) | > 100 µM (inactive) | > 100 µM (inactive) | > 100 µM (inactive) | > 100 µM (inactive) | > 100 µM (inactive) | > 100 µM (inactive) | > 100 µM (inactive) | > 100 µM (inactive) | > 100 µM (inactive) | > 100 µM (inactive) | > 100 µM (inactive) | > 100 µM (inactive) | > 100 µM (inactive)

— ChEMBL document CHEMBL1201862, “PubChem BioAssay data set” (2004)
